# According to patent publication EP3204002B1, “PHARMACEUTICAL COMBINATION FOR THE TREATMENT OF TUMORS” (International Society for Drug Development S.r.l., priority 2014, dated 2016):
# Counter-ions that a name gives are not always drawn.
# Tests used:
# Type in all cases: cell-based, human
# ANGM-CSS = assay: cell viability / cytotoxicity by WST-1 colorimetric assay in ANGM-CSS; details: alone
# Protocol: (§1) The cell line ANGM-CSS and U118-MG were used, human glioblastoma multiforme (GBM) lines. The ANGM-CSS cell line (ECACC cat n°08040401) was supplied by Dr. Angelo Notarangelo, Laboratorio di Citogenetica, IRCCS Casa Sollievo della Sofferenza, San Giovanni Rotondo (FG), Italy. The U118-MG line was purchased from ATCC, Manassas, VA, USA. The culture medium consisted of DMEM:HAMS F12 (1:1) (Sigma-Aldrich) with the addition of 2mM of L-Glutamine (Sigma Aldrich), 10% Fetal Bovine Serum (FBS, Sigma-Aldrich), 100 units/ml penicillin and 100µg/ml streptomycin (P/S) at 37°C in an atmosphere with 5% CO2.
# (§2) The cytotoxicity was evaluated via a colorimetric assay, using WST-1 (4-[3-(4-iodophenyl)-2-(4-nitrophenyl)-2H-5-tetrazolium]-1,3-benzene disulfonate) (Roche, Mannheim, Germany). The inhibition of the cell proliferation is expressed as a percentage of the absorbance at 450nm relative to the non-treated cells in culture. The absorbance was measured by an Enspire microplate reader (PerkinElmer, Wellesley, MA, USA).
# (§3) The compound 1 was tested on the two cell lines of human glioblastoma multiforme ANGM-CSS and U118MG, which are resistant to temozolomide.
# U118-MG = assay: cell viability / cytotoxicity by WST-1 colorimetric assay in U118-MG; details: alone, 10µM and 100µM
# Protocol: as §1, §2, §3
# U87MG cells = assay: cell viability by MTS assay in U87MG cells; details: 72 hours
# Protocol: The human cells of glioblastoma multiforme U87MG were obtained from the national cancer research institute in Genoa (Italy) and were monitored to determine the DNA profiling. The U87MG cells were cultivated in RPMI medium with the addition of 10% FBS, 2 mM of L-glutamine, 100 U/ml of penicillin, […] of streptomycin and 1% of non-essential amino acids at 37°C in 5% CO2. The cells were used in the successive experiments up to the fourth detaching passage.
# The U87MG cells were grown at 37°C in a humid atmosphere in the presence of 5% CO2. and were placed in a plate at a density of 3,000 cells/well. After 24 hours, the culture medium was replaced with fresh culture medium containing different concentrations of the compound 9 solubilized in DMSO. After 72 hours, the cell viability was assayed by means of MTS assay according to the manufacturer's instructions. […] The formazan formed is determined via reading of the absorbance at 490 nm measured with an automated plate reader (Victor Wallac 2, Perkin Elmer). […] The results were calculated by subtracting the mean background value from the values obtained from each evaluation and were expressed as a control percentage (non-treated cells). […] At the end of the treatments, the cell viability was determined by means of MTS assay.
SMILES,cell viability (ANGM-CSS; 10µM),cell viability (ANGM-CSS; 100 µM),cell viability (U118-MG),"cell viability (U87MG cells; compound alone at 100 nM, 500 nM, 1 µM)","minimal effective concentration (U87MG cells; Homo sapiens, U-87 MG, compound alone, read-out: concentration from which the effect on cell viability is significant) [µM]"
"COc1cc2c(cc1OC)CN(CC(=O)Nc1ccc3c(c1)/C(=C/c1cccs1)C(=O)N3)CC2 [compound 1, N-[(3Z)-(2-oxo-3-(thiophene-2-ylmethylene)-2,3-dihydro-1H-indol-5-yl]-2-(6,7-dimethoxy-3,4-dihydroisoquinol-2-(1H)-yl)-acetamide hydrochloride]",no significant effect on cell viability,significant reduction in cell viability,significant reduction of cell viability,–,–
"Cc1ccc(S(=O)(=O)Nc2ccc3c(c2)/C(=C/c2cnc[nH]2)C(=O)N3)cc1 [compound 9, N-[(3Z)-3-(1H-imidazol-5-ylmethylidene)-2-oxo-2,3-dihydro-1H-indol-5-yl]-4-methylbenzenesulfonamide]",–,–,–,"inhibits cell viability, in a concentration-dependent way",≥ 0.5
